Consider six compounds from PubChem BioAssay AID1117275 (Broad Institute, 2014).

The subject of the experiment is orthopoxvirus-infected cells, imaging factories/early/late reporters. The experiment in a line: orthopoxvirus gene expression and factory inhibitors, imaging, high MOI, single point, dry powder (AID 1117275). The conditions noted are these: at 10 µM; active compounds read high.

Calls of active or inactive are those of the source. How the calls were made is not given here.

For `Cc1ccccc1-c1ccc(CN(C)C[C@@H]2Oc3cc(C#C[C@@H](C)O)ccc3S(=O)(=O)N([C@@H](C)CO)C[C@@H]2C)cc1`, the late gene expression activity score was 67.

For the compound `C[C@@H](O)C#Cc1ccc2c(c1)O[C@@H](CN(C)Cc1ccc(-c3ccccc3Cl)cc1)[C@@H](C)CN([C@@H](C)CO)S2(=O)=O`, the late gene expression activity score was 71.

Turning to `C[C@@H](O)C#Cc1ccc2c(c1)O[C@@H](CN(C)S(=O)(=O)c1ccc(-c3ccccc3)cc1)[C@@H](C)CN([C@@H](C)CO)S2(=O)=O`, the late gene expression activity score was 86.

Take `Cc1cccc(-c2ccc(CN(C)C[C@@H]3Oc4cc(C#C[C@@H](C)O)ccc4S(=O)(=O)N([C@@H](C)CO)C[C@@H]3C)cc2)c1`: the late gene expression activity score was 78.

With `C[C@@H](O)C#Cc1ccc2c(c1)O[C@@H](CN(C)Cc1ccc(-c3ccccc3)cc1)[C@@H](C)CN([C@@H](C)CO)S2(=O)=O`, the late gene expression activity score was 17 (inactive).

As for `Cc1ccc(-c2ccc(CN(C)C[C@@H]3Oc4cc(C#C[C@@H](C)O)ccc4S(=O)(=O)N([C@@H](C)CO)C[C@@H]3C)cc2)cc1`, the late gene expression activity score was 73.
